Measured values reported in PMC4910235, “Selenophene and thiophene-core estrogen receptor ligands that inhibit motility and development of parasitic stages of Haemonchus contortus” (Parasites & Vectors, 2016).
Like-named read-outs stand apart in the source and are kept apart here.

Columns and labels:
[1] = system: exsheathed third-stage larvae (xL3s) of H. contortus; test: xL3 motility assay (whole-organism screen and dose-response); format: cell-based, Haemonchus contortus; details: for activity at 20 µM: Haemonchus contortus, 72 h, percent of motility compared with controls, mean of triplicate ± SEM
Experimental: The selenophene and thiophene-core ligands (n = 74) (Additional file 1) were screened at a concentration of 20 μM on exsheathed third-stage larvae (xL3s) of H. contortus in 96-well microculture plates (cat. no. 3635; Corning 3650, Life Sciences, Corning, USA) using relevant control compounds (i.e. moxidectin and monepantel), as described previously. In brief, compounds were dissolved to a stock concentration of 10 mM in either dimethyl sulfoxide (DMSO) or methanol (Sigma-Adrich Scientific, St. Louis, USA). These ligands were then individually diluted to the final concentration of 20 μM using Luria Bertani medium (LB) supplemented with 100 IU/ml of penicillin, 100 μg/ml of streptomycin and 2.5 μg/ml of amphotericin (LB*). Compounds were dispensed (in triplicate) into the wells of a 96-well microculture plate using a multichannel pipette. In addition, the negative controls (LB*, LB* + 0.5 % solvent; six wells each), and positive controls (20 μM of monepantel; Zolvix, Novartis Animal Health, Basel, Switzerland and 20 μM of moxidectin; Cydectin, Virbac, Carros, France; triplicate wells) and xL3s (~300/well) were dispensed into wells of the plate using an automated multichannel pipette (Viaflo Assist/II, Integra Biosciences, Zizers, Switzerland). […], a video recording (5 s) was taken of each well of the 96-well microculture plate (containing xL3s) using a greyscale camera (Rolera Bolt CMOS, Qimaging Scientific, Surrey, Canada) and a motorised X-Y axis stage (BioPoint 2, Ludl Electronics Products, Hawthorne, USA). Individual videos were processed to calculate a motility index (MI) using an algorithm described previously. MIs were normalised to the negative and positive controls (to remove plate-to-plate variation) using the program Prism (v.6 GraphPad Software, USA). Z’-scores were calculated to validate the performance of the screening assay; reliable assays achieve Z’-scores of between 0.5 and 1 [28]. A compound was recorded as having an activity if it reduced xL3 motility by ≥ 70 % following incubation for 72 h. […] Compounds that reduced the motility of xL3s were also tested for their ability to inhibit the motility of L4s (same protocol as for xL3s) and/or to affect the development of xL3s to L4s. Following the measurement of L4 motility, larvae were re-incubated for 4 more days and fixed with 1 % iodine (50 μl). Then, L4 development was assessed based on the presence of a well-developed mouth/pharynx using a light microscope and expressed as a percentage of the total number of larvae examined (n = 30).
All assays (to assess xL3 motility, L4 development and L4 motility) were performed in triplicate, three times, on separate days.

[2] = 20 μM, read-out: xL3 Motility Index(%)
[3] = read-out: xL3 Motility Index(%), 20 μM, 72 h

SMILES: COc1ccc(-c2cscc2-c2ccc(OC)cc2Cl)c(Cl)c1 [MJ-4]
- activity on xL3 motility, in words ([1]; 20 μM): Poor activity
- activity at 20 µM [1, 2]: 81.6 ± 15.7%
- melting point: 121 to 125 °C

SMILES: Oc1ccc(-c2ccc(-c3ccc(O)cc3Cl)s2)c(Cl)c1 [MJ-29]
- activity at 20 µM [1, 2]: 66.6 ± 2.7%

SMILES: Oc1ccc(-c2ccsc2-c2ccc(O)cc2Cl)c(Cl)c1 [MJ-32]
- activity on xL3 motility, in words ([1]; 20 μM): lost all activity
- activity at 20 µM [1, 2]: 102 ± 3.6%

SMILES: Cc1cc(-c2cscc2-c2ccc(O)c(C)c2)ccc1O [MJ-33]
- activity on xL3 motility, in words ([1]; 20 μM): poor activity
- activity at 20 µM [1, 2]: 85.5 ± 10.6%

SMILES: Oc1ccc(-c2cscc2-c2ccc(O)cc2)cc1 [MJ-35]
- activity on xL3 motility, in words ([1]; 20 μM): complete loss of activity
- activity at 20 µM [1, 2]: 102 ± 1.5%

SMILES: COc1ccc(-c2ccc(-c3ccc(OC)cc3Cl)[se]2)c(Cl)c1 [WZY-1]
- activity on xL3 motility, in words ([1]; 20 μM): limited reduction in motility
- activity at 20 µM [1, 3]: 77.9 ± 6.6%

SMILES: Oc1ccc(-c2ccc(-c3ccc(O)cc3F)[se]2)c(F)c1 [WZY-3]
- activity at 20 µM [1, 3]: 100 ± 7.7%

SMILES: Oc1ccc(-c2cc(Br)c(-c3ccc(O)c(Cl)c3)[se]2)cc1Cl [WZY-4]
- activity on xL3 motility, in words ([1]; 20 μM): “lost” activity
- activity at 20 µM [1, 3]: 123 ± 7.8%

SMILES: COc1c(C)cc(-c2cc(Br)c(-c3cc(C)c(OC)c(C)c3)[se]2)cc1C [WZY-5]
- activity on xL3 motility, in words ([1]; 20 μM): “lost” activity
- activity at 20 µM [1, 3]: 105 ± 18.6%
